Experimental data taken from paper PMC9059851 (RSC Advances, 2019).

Assay: Zeta potential measurement
Format: physicochemical
Conditions: NanoZS, solutions in pH 7.4 phosphate buffer

Compound: C[C@]12CC[C@H](O)C[C@H]1CC[C@@H]1[C@@H]2CC[C@]2(C)[C@@H](c3ccc(=O)oc3)CC[C@]12O [bufalin]
- zeta potential: −0.55 mV
